A short description of one data set: Kinetic solubility. It is filed as physicochemical. The note with it: 25 °C. As to the method: These conditions simulate stomach acidity, plasma neutrality, and intestinal basicity.
For the chemical stability experiment, the compounds were evaluated under the same conditions with an additional incubation at 37 °C for a period of 24 h. The analysis was performed using an analytical method developed and validated by high-performance liquid chromatography with UV detection (HPLC-UV). Compounds were quantified in different pH media by comparing the areas where the substances were completely soluble with those in the reaction media. The experiments were performed in a triplicate.
These conditions simulate stomach acidity, plasma neutrality, and intestinal basicity. […] For the chemical stability experiment, the compounds were evaluated under the same conditions with an additional incubation at 37°C for a period of 24 hours. The analysis was performed using an analytical method developed and validated by high-performance liquid chromatography with UV detection (HPLC-UV). Compounds were quantified in the different pH media by comparing the areas where the substances were completely soluble with those in the reaction media. The experiments were performed in triplicate.

Data set [1] can be described thus: Lipophilicity assay (LogD at pH 7.4), shake flask. The format is physicochemical. The note with it: pH 7.4, n-octanol/phosphate buffer.
Experimental: For this assay, an aqueous phosphate buffer solution at pH 7.4, saturated with n-octanol, was prepared, along with an n-octanol solution saturated with the aqueous phase at pH 7.4. Both solutions were mechanically stirred (using a magnetic stir bar and a Corning magnetic stirrer) at room temperature for 24 h, followed by a 24-hour resting period to ensure complete phase separation. Different phase ratios were prepared from these solutions in the following aqueous phase/n-octanol ratios: 1:1, 1:10, 1:100, and 1:300, to ensure that the substances were evaluated under non-saturating conditions. Stock solutions of each compound were prepared in DMSO at a concentration of 20 mM. From these stock solutions, standard solutions at a concentration of 30 µM in phosphate buffer pH 7.4 were obtained and used in each partition system, performed in triplicate. To reach equilibrium, the vials containing the samples were shaken for 90 min at room temperature using a roller shaker (Basic First Lab Orbital).
A further data set can be described thus: in vitro. The format is in vitro ADME. The note with it: for Papp at 5 h, 100 μM: PAMPA. The procedure: The parallel artificial membrane permeability assay (PAMPA) was performed using a 96-well pre-coated plate system (Corning® BioCoat™ PAMPA Plate System). […] A total of 200 µL of each solution was added to donor wells, while 300 µL of PBS was placed in the corresponding acceptor wells. The plates were assembled and incubated at 37 °C for 5 h. Aliquots of the initial donor solution (T0) were collected before incubation and stored at −20 °C. At the end of the incubation, samples from donor and acceptor compartments were transferred to tubes containing 30% (v/v) acetonitrile and processed under identical conditions. Compound concentrations in donor, acceptor, and T0 samples were quantified by high-performance liquid chromatography with ultraviolet detection (HPLC-UV) using validated chromatographic conditions. The apparent permeability coefficient (Papp) was calculated using the standard PAMPA equation, shown below. All experiments were performed in a trplicate.
The Papp equation is: Papp=−VD+VA/At VD+VAln 1−CA t/Ceq
(In general: The PAMPA barrier holds no transporters, so it reflects passive diffusion.)

The nature of data set [2]: Metabolic stability in mouse liver microsomes. The format is in vitro ADME. The note with it: for half-life at 1 μM: CD-1, pH 7.4, mouse liver microsomes, 0.25 mg/mL, read-out: T1/2 - mouse; for parent compound remaining: mouse microsomes. The procedure:
The in vitro metabolic stability of the compound was evaluated in pooled human liver microsomes (HLM, 20 mg/mL), Sprague-Dawley rat liver microsomes (RLM, 20 mg/mL), and CD-1 mouse liver microsomes (MLM, 20 mg/mL), all purchased from GIBCO (Thermo Fisher Scientific). NADPH regenerating system (GentestTM) was prepared in potassium phosphate buffer (100 mM, pH 7.4). […] The reaction was stopped by adding acetonitrile, followed by vortex homogenization, sonication for 5 min, and centrifugation at 10,000 g for 5 min at 4 °C. The supernatants were transferred to glass vials for LC-MS/MS analysis. The half-life was estimated based on the area under the curve (AUC) through regression analysis of the concentration decay over time. This calculation was performed using the following formula: t1/2=LN2/Kel
Where LN is the neperian logarithm, and K is the slope of the regression of the LN of AUC as a function of time. Then, the microsomal intrinsic clearance (CLint, mic) was calculated using the following equation: CLint.mic=LN2/t1/2 x VI/PM
Where V is the incubation volume (µL), and PM is the microsomal protein concentration (mg). This intrinsic clearance can be extrapolated to the whole liver (CLint,hep) using the following equation: CLint.hep=CLint.mic x ML x LB
ML is the microsomal yield, and LB is the liver weight (g) per kilogram of body weight.
To ensure the linearity of the elimination phase and to avoid the influence of points outside the log-linear range, the points deviated from the expected first-order kinetic profile were excluded. The supernatants were analyzed by UPLC-Xevo-TQ-XS from Waters. Chromatographic separation was performed on an Acquity UPLC BEH C18 column (2.1 × 100 mm, 1.7 µm particle size), maintained at 40 °C. The mobile phases were (A) water with 0.1% formic acid and (B) acetonitrile with 0.1% formic acid. […] The total run time was 5 min.
On the technique in general: Liver microsomes are a subcellular fraction often used to study metabolism.

A short description of a further data set: Stability in HBSS buffer. The format is physicochemical. The note with it: 37°C, 2 hours. The procedure:
The compounds were evaluated for chemical stability in Hanks’ Balanced Salt Solution (HBSS) over a 2-hour incubation period at 37°C. Stock solutions prepared in DMSO were diluted in HBSS to the desired test concentration. Samples were collected at time zero and after 2 hours of incubation. The remaining concentration of each compound was quantified by HPLC-UV, with stability assessed by comparing the percentage of compound remaining after 2 hours relative to the initial concentration.

[3] abbreviates: across pH conditions (1.7, 7.4, 8.9).
Where [4] appears, read: pH 5.5, PAMPA pH 5,5 Papp - lower.
[5] abbreviates: pH 5.5, PAMPA pH 5,5 Papp - upper.
The mark [6] stands for this setting: pH 7.4, PAMPA pH 7,4 Papp - lower.
Where [7] appears, read: pH 7.4, PAMPA pH 7,4 Papp - upper.

As a reminder, the logD is lipophilicity at a set pH, counting ionised and neutral species. Low values mean lower lipophilicity, high ones higher lipophilicity. As usually defined, the Papp is a coefficient for how fast a substance crosses the barrier. Higher therefore signals ready permeation.

In the case of `CC(C)Oc1ccc(NS(=O)(=O)c2cccc(NC(=O)c3cnccn3)c2)cc1` [AC-M110, N-(3-(N-(4-isopropoxyphenyl)sulfamoyl)phenyl)pyrazine-2-carboxamide], the Kinetic solubility was 65% in “Kinetic solubility” (acidic pH (1.7), 5 µM); “above 60%” in “Kinetic solubility” (setting [3]); 74% in the data set “Kinetic solubility” (basic pH (8.9), 5 µM); 65% in “Kinetic solubility” (neutral pH (7.4), 5 µM). This compound also gave a logD at 90 min in data set [1] of 3. In addition, the Papp at 5 h, 100 μM in the data set “in vitro” (setting [4]) came out at 3.4 ×10⁻⁶ cm/s; in “in vitro” (setting [5]), 4.4 ×10⁻⁶ cm/s; in “in vitro” (setting [6]) it was 9.1 ×10⁻⁶ cm/s; in the data set “in vitro” (setting [7]) it was 9.6 ×10⁻⁶ cm/s. Also, the “PAMPA Papp at pH 5.5” value in “in vitro” (pH 5.5) is 3.4–4.5 × 10^−6. In addition, the microsomal CLint at 1 μM in data set [2] (CD-1, mouse, liver microsomes, pH 7.4, mouse liver microsomes, read-out: CL int. mic.) was 339 µL/min/mg. Further, the half-life at 1 μM in data set [2] was found to be 2 min. For the same compound, in data set [2] (15 min), the parent compound remaining result is “less than 1%”. In addition, the CL int. hep. in data set [2] (mouse, extrapolated to the whole liver) was 1370 mL/min/kg. In the data set “Stability in HBSS buffer”, the “chemical stability in HBSS buffer (in words)” value was “remained chemically stable”.

As to `COc1ccc(NS(=O)(=O)c2cccc(NC(=O)c3cnccn3)c2)cc1` [AC-R008, N-(3-(N-(4-methoxyphenyl)sulfamoyl)phenyl)pyrazine-2-carboxamide], the Kinetic solubility was 75% in “Kinetic solubility” (acidic pH (1.7), 5 µM); “above 60%” in “Kinetic solubility” (setting [3]); 75% in the data set “Kinetic solubility” (basic pH (8.9), 5 µM); 75% in “Kinetic solubility” (neutral pH (7.4), 5 µM). The logD at 90 min in data set [1] amounted to 2.5. The Papp at 5 h, 100 μM in “in vitro” (setting [4]) came to 40.5 ×10⁻⁶ cm/s; in the data set “in vitro” (setting [5]), 56 ×10⁻⁶ cm/s; in the data set “in vitro” (pH 7.4, PAMPA Papp at pH 7.4) it was 92 ×10⁻⁶ cm/s; in “in vitro” (setting [6]), 92 ×10⁻⁶ cm/s; in the data set “in vitro” (setting [7]) it was 86 ×10⁻⁶ cm/s. Moreover, in data set [2], the half-life at 1 μM is 3 min. Besides, the parent compound remaining in data set [2] (5 min) is recorded as 5%; in data set [2] (15 min), “less than 1%”. Further, the “chemical stability in HBSS buffer (in words)” value in the data set “Stability in HBSS buffer” is on record as “remained chemically stable”.

The values above are taken from publication PMC12698583, “Efficacy of sulfonamides targeting malic enzyme in an animal model of Chagas disease” (Frontiers in Pharmacology, 2025).
